Data on 3 compounds can be found in patent publication EP2792360A1, “(1aR,12bS)-8-cyclohexyl-11-fluoro-N-((1-methylcyclopropyl)sulfonyl)-1a-((3-methyl-3,8-diazabicyclo[3.2.1]oct-8-yl)carbonyl)-1,1a,2,2b-tetrahydrocyclopropa[d]indolo[2,1-a][2]benzazepine-5-carboxamide for use in treating HCV” (IP Gesellschaft für Management mbH, priority 2013, dated 2014).

The structures appear in SMILES notation.

A short description of data set [1]: Relative stability (non-competitive and competitive interconversion) experiments of crystal forms of Compound 1.
Experimental: For the non-competitive experiments, only a single starting crystal form was used to study the potential conversion to another more stabb form. […] The slurry was cooled to 25-30 °C, filtered, suction dried for 1 hour and dried in a vacuum oven at 70 °C and 8 kPa absolute pressure for 12 hours. […] The slurry was cooled to 25-30 °C, filtered, suction dried for 1 hour and dried in a vacuum oven at 70 °C and 8 kPa absolute pressure for 12 hours. […] The slurry was cooled to 25-30 °C, filtered, suction dried for 1 hour and dried in a vacuum oven at 70 °C and 8 kPa absolute pressure for 12 hours.
The nature of data set [2]: Stability experiment for polymorph Form A of Compound 1 (stability chamber). In kind it is physicochemical. The note with it: 40 °C for 30 days. As to the method:
CHARACTERIZATION EXAMPLE 13 - Stability Experiment for Polymorph Form A ({drug1a}) of Compound 1 (drug 1): The physical stability of Form A ({drug1a}) of Compound 1 (drug 1) was determined as follows. Compound 1 (drug 1) prepared according to Preparation Example 3 was analyzed by pXRD, DSC, HPLC and 1H-NMR and found to be of pure crystal Form A ({drug1a}) of 99.9 % purity (by HPLC peak area at 230 nm detection wavelength). An aliquot of the sample (3.0 g) was placed in a primary polyethylene bag, the primary bag was flushed with nitrogen gas and sealed. The primary polyethylene bag was then placed in a secondary polyethylene bag which was again flushed with nitrogen gas and a silica gel sachet was placed between the inner and the outer bag. The double bagged material was then placed in a triple laminated aluminum pouch and placed in a stability chamber at 40 °C for 30 days. Analysis by HPLC and 1H-NMR of the resulting material indicated pure Form A ({drug1a}) of Compound 1 (drug 1) of 99.9 % purity (by HPLC peak area at 230 nm). […] The triclinic cell parameters were determined to be: a = 14.835(7) A, b = 15.216(8) A, c = 18.790(10) A, alpha = 90.306(7) °, beta = 93.619(7) °, gamma = 1 13.045(7) °, volume = 3893(3) A3. The space group was determined to be P-1. The molecular weight was 468.23 giving a calculated density of 1.598g/cm3, and µ(Mo) = 0.50mm"1 for Z = 8. […]

Data set [3] in a line: Solid form stability of forms of compound of formula (IV) (Temperature / Humidity Controlled XRPD, storage, suspension). The data set is classed as physicochemical. As to the method:
The term"XRPD" denotes the analytical method of X-Ray Powder Diffraction. XRPD patterns were recorded at ambient conditions in transmission geometry with a STOE STADI P diffractometer (Cu K alpha radiation source, primary monochromator, position sensitive detector, angular range 3° to 42° 2Theta, approximately 60 minutes total measurement time). The repeatability of the angular values is in the range of 2Theta ±0.2°. The term "approximately" given in combination with an angular value denotes the repeatability which is in the range of 2Theta ±0.2°. The samples were prepared and analyzed without further processing (e.g. grinding or sieving) of the substance. The relative XRPD peak intensity is dependent upon many factors such as structure factor, temperature factor, crystallinity, polarization factor, multiplicity, and Lorentz factor. Relative intensities may vary considerably from one measurement to another due to preferred orientation effects. Humidity Controlled XRPD analyses were performed in reflection geometry with a Siemens D5000 Diffractometer (Cu radiation source, Ni K beta filter, Scintillation detector, angular range 3° to 42° 2Theta, approximately 180 minutes total measurement time per humidity level). The diffractometer is equipped with an MRI (Materials Research Instruments) humidity chamber. The humidity within the chamber is adjusted with an ANSYCO humidity controller (SYCOS H-HOT). For single crystal structure analysis a single crystal sample was mounted in a nylon loop on a goniometer and measured at ambient conditions. Alternatively, the crystal was cooled in a nitrogen stream during measurement. Data were collected on a GEMINI R Ultra diffractometer from Oxford Diffraction. Cu-radiation of 1.54 A wavelength was used for data collection. Data was processed with the Oxford Diffraction CRYSALIS software. The crystal structure was solved and refined with standard crystallographic software. In this case the program ShelXTL from Bruker AXS (Karlsruhe) was used. The abbreviation "FWHM" denotes the full width at half maximum, which is a width of a peak (e.g. appearing in a spectrum, particularly in an XRPD pattern) at its half height. The term "sharp Bragg diffraction peak" in connection with X-ray diffraction patterns denotes a peak which is observed if Bragg' s law of diffraction is fulfilled. Generally, the FWHM of a sharp Bragg diffraction peak is less than 0.5° 2-theta. The term "amorphous halo" in connection with X-ray diffraction patterns denotes an approximately bell- shaped diffraction maximum in the X-ray powder diffraction pattern of an amorphous material. The FWHM of an amorphous halo is on principle larger than the FWHM of the peak of crystalline material. The terms "FTIR" and "IR" denote the analytical method of infrared spectroscopy. The IR-spectra of the samples are recorded as film of a Nujol suspension consisting of approx. 5 mg of sample and approx. 5 mg of Nujol (mineral oil) between two sodium chloride plates (cross section 13 mm) in transmittance with a FTIR- spectrometer. The spectra were recorded in spectral range between 4000 cm"1 and 600 cm"1, resolution 2 cm"1, and 300 coadded scans on a Magna 860 (thermo/Nicolet) equipped with a DTGS detector. The term "Raman" denotes the analytical method of Raman spectroscopy. For recording Raman spectra, the samples were spread on a glass slide. Raman spectra were recorded in the range of 150-3800 cm"1 with an ARAMIS (HoribaJobinYvon) Raman microscope equipped with a Peltier cooled CCD detector, at excitation of 633 nm, a 1200 1/mm grating, a x50 objective and with 3 exposures of 3s, or 7s for weak Raman scatterers. The term "DSC" denotes the analytical method of Differential Scanning Calorimetry. DSC thermograms were recorded using a Mettler-Toledo™ differential scanning calorimeter DSC820, DSC821 or DSC1 with a FRS05 sensor. […]

Data set [4] in a line: in vitro dissolution of micronized powders in SGF and FeSSIF (miniaturized, non-sink). In kind it is physicochemical. As to the method:
Example 28: in vitro Dissolution Results: The in vitro dissolution studies performed in this work were conducted in a miniaturized system with 100 mL dissolution medium per experiment. […] Simulated gastric fluid (SGF) was prepared with 2 g/L NaCl and 1 g/L Triton® X-100 in 0.1 N HCl. The resulting measured pH of SGF was 1.2. Simulated fed state intestinal fluid (FeSSIF) was prepared as previously reported in […]. et al. (Pharm. Res. […] Oral absorption of a drug compound from a solid dosage form is dependent on dissolution rate and solubility. […] Figure 21 of WO/2013/057124presents the dissolution profiles measured in simulated gastric fluid (SGF) and Figure 22 of WO/2013/057124shows the dissolution profiles in simulated fed state intestinal fluid (FeSSIF). […] Changes of pH values in the dissolution test samples taken at different time points were not observed. The ranking of the different solid forms with respect to dissolution speed and maximum drug concentration achieved was identical in both media. The differences in the dissolution profiles in SGF and FeSSIF can be explained by the different composition of the two media since the dissolution generally depends on a variety of factors such as pH, surfactant, buffer capacity, ionic strength, etc. […]

Data set [5] is described as follows: Hygroscopicity of solid forms of compound of formula (IV) (Ph. Eur. classification). The data set is classed as physicochemical. As to the method: For the thermogravimetric analyses, approx. 5 - 10 mg of sample were placed in aluminum pans, accurately weighed and hermetically closed with perforation lids. […] The samples were then heated under a flow of nitrogen of about 50 mL/min using a heating rate of 5 K/min. The term "micronization" denotes a process whereby the particle size of a solid material is diminished to a d50 value of less than IOµm by the aid of a suitable method, such as milling, bashing or grinding. […] The term "anti-solvent crystallization" denotes a process wherein supers aturation and as a result thereof crystallisation is achieved by addition of an antisolvent to the product solution. The term "ambient conditions" denotes conditions as experienced in a standard laboratory, e.g. atmospheric pressure, air, ambient temperature between 18 °C and 28 °C, humidity between 30 %rH and 80 %rH. The term "hygroscopicity" describes the ability of a solid material to adsorb moisture. The hygroscopicity of a given API is characterized [European Pharmacopoeia - 6th Edition (2008), Chapter 5.11) by the increase in mass when the relative humidity is raised from 0 %rH to 90 %rH: o non-hygroscopic: weight increase Am < 0.2%; o slightly hygroscopic: weight increase 0.2% < Am < 2.0%; o hygroscopic: weight increase 2.0% < Am < 15.0%; o very hygroscopic: weight increase Am > 15.0%; o deliquescent: sufficient water is adsorbed to form a liquid. The IUPAC lamda convention (W.H. Powell, Pure & Appl. Chem. […] The bonding number "n" of a heteroatom is the sum of the total number of valence bonds to adjacent atoms, if any, and the number of attached hydrogen atoms. The bonding number of a heteroatom is standard when it has the value given in the following table: n=4: C, Si, Ge, Sn, Pb; n=3 B, N, P, As, Sb, Bi, n=2: O, S, Se, Te, Po; n=l; F, CI, Br, I, At. A nonstandard bonding number of a (neutral) heteroatom is indicated by the symbol "λη", where "n" is the bonding number. […]

Data set [6] can be described thus: physchem. As to the method:
Anal. Chem. Instrum. […] Drug Delivery Rev. […] The binding constant (K) of the gamma-CD inclusion complex ({drug4g}) was calculated from the initial straight line portion of the phase solubility diagram by linear regression, according to the following equation [T. Higuchi et al., Adv. Anal. Chem. Instrum.

Consider `COc1ccc(Cl)c(S(=O)(=O)NC(=O)c2cn3cc(C(F)(F)F)cc(Cl)c3n2)c1` [Form A ({drug1a}), 8-chloro-N-[(2-chloro-5-methoxyphenyl)sulfonyl]-6-(trifluoromethyl)-imidazo[1,2-a]pyridine-2-carboxamide], for which, in data set [1] (non-competitive, refluxed in deionized water at about 95 °C for 3 hours, pXRD, DSC, TGA, 1H-NMR), the “crystal form of the resulting material” value is “remained unchanged”. In data set [1] (water heated to 95 °C or methanol heated to 55 °C), the “relative thermodynamic stability of polymorph form” value was “most thermodynamically stable polymorph form”. Also, the “crystal form by pXRD and DSC after storage” value in data set [2] was “pure polymorphForm A”. For the same compound, the “purity (by HPLC peak area at 230 nm) after storage” value in data set [2] (double polyethylene bags under nitrogen in aluminum pouch, 99.9 % before storage) came to 99.9%.

Consider `Cc1onc(-c2ccc(F)cc2)c1COc1ccc(C(=O)N2CCS(=O)(=O)CC2)cn1` [Form C ({drug4c}), (1,1-dioxo-1lambda6-thiomorpholin-4-yl)-{6-[3-(4-fluoro-phenyl)-5-methyl-isoxazol-4-ylmethoxy]-pyridin-3-yl]-methanone], for which, in data set [3], the “behaviour in the presence of water in suspended state” value is reported as “transforms into Form B” and the “thermodynamic stability of the solid form” value is on record as “most stable polymorph overall”. The “phase change upon storage at 100 rH at ambient temperature” value in data set [3] (Form C: prolonged period, e.g. 30 days) was “does not induce this phase change”. The “solid form changes at elevated temperature” value in data set [3] (Temperature Controlled XRPD) is “do not show solid form changes”. Further, the “solubility in simulated gastric fluid (SGF)” value in data set [4] is given as “considerably improved as compared to Form B”. Besides, in data set [5], the “hygroscopicity relative to Form A” value was “less hygroscopic than Form A”.

As to `Cc1onc(-c2ccc(F)cc2)c1COc1ccc(C(=O)N2CCS(=O)(=O)CC2)cn1` [gamma-CD inclusion complex ({drug4g}), (1,1-dioxo-1lambda6-thiomorpholin-4-yl)-{6-[3-(4-fluoro-phenyl)-5-methyl-isoxazol-4-ylmethoxy]-pyridin-3-yl]-methanone], the “initial concentration achieved in dissolution” value in data set [4] (SGF and FeSSIF, room temperature, dropped in the first 60 min to a level comparable to polymorph C) was “much higher initial concentration”. In data set [6], the “binding constant (K)” value is 510.4 M⁻¹.
